Laboratory results published in patent US20120046353A1 (priority 2010, published 2012).

Molecular target: neuraminidase of Tamiflu-resistant novel influenza virus (point mutation H→Y) (Influenza A virus, UniProt C3W5S3, H275Y)

With `COc1c(C)c(O)c(C)c(O)c1C(=O)/C=C/c1ccc(O)cc1` [Compound 4, 4,2′,4′-trihydroxy-6′-methoxy-3′,5′-dimethylchalcone] as the compound, how does the “Inhibitory activity against neuraminidase of Tamiflu-resistant novel influenza virus, in words” value (“Inhibitory activity” for short) read?
The value was “excellent inhibitory activity”.

For `COc1c(C)c(O)c(C)c(O)c1C(=O)/C=C/c1ccccc1` [Compound 5, 2′,4′-dihydroxy-6′-methoxy-3′,5′-dimethylchalcone], which “Inhibitory activity” value is on record?
The value was “excellent inhibitory activity”.

Which “Inhibitory activity” value does the source give for `COc1cc(O)c(C)c(O)c1C(=O)/C=C/c1ccccc1` [Compound 8, 2′,4′-dihydroxy-3′-methyl-6′-methoxychalcone] here?
The value was “excellent inhibitory activity”.

`COc1c(C)c(O)c(C)c(O)c1C(=O)/C=C/c1ccccc1O` [Compound 14, 2,2′,4′-trihydroxy-6′-methoxy-3′,5′-dimethylchalcone] was tested. Which “Inhibitory activity” value did it give?
The value was “excellent inhibitory activity”.
